Reference: patent publication US20090054353A1, “MANNOSYL-1 PHOSPHATES, PREPARATION METHOD AND THERAPEUTIC USE, IN PARTICULAR AGAINST THE CDG-IA SYNDROME” (priority 2006, published 2009)

Assays:
[1] = system: lymphoblasts of CDG-Ia diseases; assay: cell toxicity on lymphoblasts; type: cell-based; conditions: dose of 500 μM; for cell mortality / toxicity (in words): lymphoblasts, comparison with CP1, CP3 and CP6; for Toxicity (cell toxicity): percentage relative to the controls, lymphoblasts of CDG-Ia, 5 trials per product
Method: (§1) The compounds of formula I, II and III were tested as prodrugs (i.e. as intracellular sources of Man-1 P), on the one hand, in order to evaluate their toxicity and, on the other hand, in order to assess their capacity to inhibit the incorporation of 2-[^3H]mannose into cellular glycoconjugates. Indeed, while they can generate Man-1 P in cells, it will be in competition with 2-[^3H]mannose-1 phosphate for entering the pathway for biosynthesis of glycoproteins (see Eklund, E. A., et al. cited above).
(§2) The products were tested (5 trials per product and per dose) on lymphoblasts of CDG-Ia diseases and their activities (“radioactivity”, i.e. inhibition, by competition, of the binding of 2-[^3H]mannose-1 phosphate; and cell “toxicity”) were assessed as a percentage relative to the controls (10 trials).

[2] = system: lymphoblasts of CDG-Ia diseases; assay: inhibition of incorporation of 2-[3H]mannose into cellular glycoconjugates ("radioactivity"); type: cell-based, human; conditions: dose of 500 μM; for effectiveness in inhibiting the incorporation of radioactive mannose into glycoproteins (in words): lymphoblasts, comparison between products; for Radioactivity (inhibition, by competition, of the binding of 2-[3H]mannose-1 phosphate): percentage relative to the controls, lymphoblasts of CDG-Ia, 5 trials per product
Method: as §1, §2

Row | Compound | cell mortality / toxicity (in words) [1] | Toxicity (cell toxicity) [1] | effectiveness in inhibiting the incorporation of radioactive mannose into glycoproteins (in words) [2] | Radioactivity (inhibition, by competition, of the binding of 2-[3H]mannose-1 phosphate) [2]
1 | Benzyl di(2,3,4,6-tetra-O-isobutyryl-α-D-mannopyranosyl-1) phosphate [Ex. 12] | a lot less toxic | 112% | less effective than CP1, CP3 and CP6 | 25%
2 | CC(C)(C)C(=O)OCOP(=O)(OCOC(=O)C(C)(C)C)O[C@H]1O[C@H](COC(=O)C(C)(C)C)[C@@H](OC(=O)C(C)(C)C)[C@H](OC(=O)C(C)(C)C)[C@@H]1OC(=O)C(C)(C)C [CP3, di(pivaloyloxymethyl) (2,3,4,6-tetra-O-pivaloyl-α-D-manno-pyranosyl-1) phosphate] | at least a doubling of cell mortality | 205% |  | 90%
3 | CC(=O)OC[C@H]1O[C@H](OP(=O)(OCOC(=O)C(C)(C)C)OCOC(=O)C(C)(C)C)[C@@H](OC(C)=O)[C@@H](OC(C)=O)[C@@H]1OC(C)=O [CP1, di(pivaloyloxymethyl) (2,3,4,6-tetra-O-acetyl)-α-D-mannopyranosyl-1] phosphate] | at least a doubling of cell mortality | 210% |  | 92%
4 | CCOC(=O)OC[C@H]1O[C@H](OP(=O)(OCOC(C)=O)OCOC(C)=O)[C@@H](OC(=O)OCC)[C@@H](OC(=O)OCC)[C@@H]1OC(=O)OCC [CP6, di(acetyloxymethyl) (2,3,4,6-tetra-O-ethyloxycarbonyl)-α-D-manno-pyranosyl-1) phosphate] | at least a doubling of cell mortality | 201% |  | 91%
5 | Di(2,3,4,6-tetra-O-isobutyryl-α-D-mannopyranosyl-1) hydrogen phosphate [Ex. 4] | less toxic | 100% | therapeutically less effective than Ex. 5, Ex. 11, Ex. 12 and Ex. 13 | 100%
